# Experimental data from article PMC11078990, “Identification and characterization of small molecule inhibitors of the LINE-1 retrotransposon endonuclease” (Nature Communications, 2024).
# Where “and” joins values, the source holds several entries; their conditions need not be identical. Equal entries are not always repeated. Entries after “also recorded” stand apart in the source; their conditions may differ. Where two headings read alike, the source gives them in different places.
# Experiments:
# [1] = target: L1 EN (LINE-1 retrotransposon endonuclease domain) (Homo sapiens, UniProt O00370, N5T); assay: Fluorescent oligonucleotide EN nicking activity assay; assay type: biochemical
# Chain of L1 EN (LINE-1 retrotransposon endonuclease domain) (O00370 1-239 N5T): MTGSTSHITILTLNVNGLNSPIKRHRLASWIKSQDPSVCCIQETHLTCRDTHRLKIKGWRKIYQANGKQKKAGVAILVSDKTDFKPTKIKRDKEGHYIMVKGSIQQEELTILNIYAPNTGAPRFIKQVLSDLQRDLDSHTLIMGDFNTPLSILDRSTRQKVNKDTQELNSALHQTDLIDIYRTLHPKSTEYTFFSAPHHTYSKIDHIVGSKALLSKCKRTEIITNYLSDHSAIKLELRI
# APE1 [2] = target: T1, APE1 (Homo sapiens, UniProt P27695); assay: APE1 fluorescent oligonucleotide activity assay (abasic site substrate); assay type: biochemical
# T1 construct: purchased New England Biolabs (NEB) M0282S
# [3] = system: substrate oligonucleotide used in the EN activity assay; assay type: binding; design: key to Binding Detected? (Y/N): Binding Detected? (Y/N); Binding Detected? (Y/N)
# EN = EN (Homo sapiens, UniProt O00370, N5T); assay type: biochemical
# Chain of EN (O00370 1-239 N5T): as above
# L1 retrotransposition = assay: HeLa dual-luciferase L1 retrotransposition assay; assay type: cell-based, human; conditions: for L1 retrotransposition, average: average of 4 replicates, Figure 4b
# APE1 [4] = target: T1, APE1; conditions: read-out: Ki for APE1; cited from earlier work
# [5] = system: L1-induced DNA damage in HeLa Tet-On cells (full-length L1); assay: γ-H2AX immunofluorescence assay, full-length L1 constructs; assay type: cell-based, human
# [6] = system: DNA fragmentation (comet tail length) in HeLa Tet-On cells expressing EN domain; assay: Neutral comet assay, EN domain-only constructs; assay type: cell-based, human; conditions: 50 μM inhibitor; EN domain-only construct; neutral comet assay; normalised to WT
# [7] = system: senescent LF1 human diploid fibroblasts (IL6, IL1β, CCL2, IFNα, MMP3); assay: RT-qPCR of inflammatory markers in replicatively senescent fibroblasts; assay type: cell-based
# [8] = system: senescent LF1 human diploid fibroblasts (IFN-I and Aging gene sets); assay: RNA-seq / Gene Set Enrichment Analysis of senescent cultures; assay type: cell-based; conditions: senescent cultures treated 1 month beginning at 3 months senescence
# HeLa Tet-On cells = conditions: human, 48 h, 50 μM
smiles,measurement,setting,value
O=C(O)[C@H](CCCCNc1ccc([N+](=O)[O-])cc1[N+](=O)[O-])Nc1ccc([N+](=O)[O-])cc1[N+](=O)[O-] [AD2],"EN activity, percent of no inhibitor control",[1]; 2 µM,97.2065% and 90.9835% and 64.2149%
same,"EN activity, percent of no inhibitor control",[1]; 10 µM,80.6222% and 62.0824% and 77.8942%
same,"EN activity, percent of no inhibitor control",[1]; 25 µM,84.9255% and 87.5391% and 75.5295%
same,"EN activity, percent of no inhibitor control",[1]; 50 µM,66.9257% and 62.5652% and 70.9549%
same,"EN activity, percent of no inhibitor control",[1]; 100 µM,54.3551% and 40.6401% and 45.1735%
same,"EN activity, percent of no inhibitor control",[1]; 500 µM,2.482% and 2.582%
same,"EN activity, percent of no inhibitor control",[1]; 1000 µM,-0.01768% and 1.001% and 0.6109%
same,"EN activity, percent of no inhibitor control",[1]; 2000 µM,-4.007% and -5.494% and -4.957%
same,APE1 activity (%),APE1 [2],96.2 ± 3.4%
same,"APE1 percent activity, Replicate 1",APE1 [2],98.5607%
same,"APE1 percent activity, Replicate 2",APE1 [2],92.3765%
same,"APE1 percent activity, Replicate 3",APE1 [2],97.7464%
same,"APE1 percent activity, average",APE1 [2],96.2279%
same,Effect on APE1 activity,APE1 [2],inhibited; also recorded: inhibition by the weak APE1 inhibitor AD2 was detected
same,"Percent APE1 activity, average",APE1 [2],66.36%
same,"Percent APE1 activity, replicates",APE1 [2],67.8305% and 52.9447% and 78.2943%
same,Binding Detected? (Y/N),[3],N
same,Inhibition of EN activity in plasmid nicking assay,EN,full inhibition
same,Effect on L1 retrotransposition,L1 retrotransposition,did not significantly impact retrotransposition
same,Ki,APE1 [4],13 µM
COc1ccc2c(c1)C(=O)N(CCc1ccc(S(=O)(=O)NC(=O)NC3CCCCC3)cc1)C(=O)C2(C)C [AD12],"EN activity, percent of no inhibitor control","[1]; [Inhibitor] 5 μM, technical replicates 1-3, Fig. 2b source data, 5 µM",77.035% and 74.8653%
same,remaining activity at 5 µM,"[1]; [Inhibitor] 5 μM, technical replicates 1-3, Fig. 2b source data, read-out: EN activity, percent of no inhibitor control",78.7%
same,"EN activity, percent of no inhibitor control","[1]; [Inhibitor] 25 μM, technical replicates 1-3, Fig. 2b source data, 25 µM",81.0185% and 81.0517%
same,remaining activity at 25 µM,"[1]; [Inhibitor] 25 μM, technical replicates 1-3, Fig. 2b source data, read-out: EN activity, percent of no inhibitor control",80.7%
same,"EN activity, percent of no inhibitor control","[1]; [Inhibitor] 50 μM, technical replicates 1-3, Fig. 2b source data, 50 µM",93.0387% and 96.7449% and 76.3025%
same,"EN activity, percent of no inhibitor control","[1]; [Inhibitor] 100 μM, technical replicates 1-3, Fig. 2b source data, 100 µM",74.7453% and 98.1517% and 74.2286%
same,"EN activity, percent of no inhibitor control","[1]; [Inhibitor] 250 μM, technical replicates 1-3, Fig. 2b source data, 250 µM",79.2639% and 68.0005%
same,remaining activity at 250 µM,"[1]; [Inhibitor] 250 μM, technical replicates 1-3, Fig. 2b source data, read-out: EN activity, percent of no inhibitor control",61.9%
same,"EN activity, percent of no inhibitor control","[1]; [Inhibitor] 500 μM, technical replicates 1-3, Fig. 2b source data, 500 µM",55.3249% and 49.2356%
same,remaining activity at 500 µM,"[1]; [Inhibitor] 500 μM, technical replicates 1-3, Fig. 2b source data, read-out: EN activity, percent of no inhibitor control",62.1%
same,"EN activity, percent of no inhibitor control","[1]; [Inhibitor] 750 μM, technical replicates 1-3, Fig. 2b source data, 750 µM",29.8392% and 18.9487%
same,remaining activity at 750 µM,"[1]; [Inhibitor] 750 μM, technical replicates 1-3, Fig. 2b source data, read-out: EN activity, percent of no inhibitor control",18%
same,"EN activity, percent of no inhibitor control","[1]; [Inhibitor] 1000 μM, technical replicates 1-3, Fig. 2b source data, 1000 µM",13.0331% and 19.9958%
same,remaining activity at 1000 µM,"[1]; [Inhibitor] 1000 μM, technical replicates 1-3, Fig. 2b source data, read-out: EN activity, percent of no inhibitor control",20.4%
same,"EN activity, percent of no inhibitor control","[1]; [Inhibitor] 1500 μM, technical replicates 1-3, Fig. 2b source data, 1500 µM",5.3699% and 4.215%
same,remaining activity at 1500 µM,"[1]; [Inhibitor] 1500 μM, technical replicates 1-3, Fig. 2b source data, read-out: EN activity, percent of no inhibitor control",4.91%
same,"Percent APE1 activity, average","APE1 [2]; 250 µM, Supplementary Fig. 6b, n=3",114.2%
same,"Percent APE1 activity, replicates","APE1 [2]; 250 µM, Supplementary Fig. 6b, replicates 1-3",123.394% and 115.312% and 103.88%
same,"APE1 percent activity, Replicate 1","APE1 [2]; compound at 25 μM, Replicate 1",105.329%
same,"APE1 percent activity, Replicate 2","APE1 [2]; compound at 25 μM, Replicate 2",115.007%
same,"APE1 percent activity, Replicate 3","APE1 [2]; compound at 25 μM, Replicate 3",106.871%
same,"APE1 percent activity, average","APE1 [2]; compound at 25 μM, average of 3 replicates",109.069%
same,activity at 25 µM,"APE1 [2]; inhibitors at 25 μM, relative to 0 μM inhibitor control, mean ± s.d., 3 independent experiments, read-out: APE1 activity (%)",109 ± 5.2%
same,Binding Detected? (Y/N),[3],N
same,"L1 retrotransposition, average",L1 retrotransposition; 1 μM inhibitor,17.6477
same,"L1 retrotransposition, average",L1 retrotransposition; 5 μM inhibitor,10.1662
same,"L1 retrotransposition, average",L1 retrotransposition; 10 μM inhibitor,4.75
same,"L1 retrotransposition, average",L1 retrotransposition; 25 μM inhibitor,4.785
same,"L1 retrotransposition, average",L1 retrotransposition; 50 μM inhibitor,3.467
same,"L1 retrotransposition, average",L1 retrotransposition; 100 μM inhibitor,2.555
same,"Luciferase (retrotransposition), average","L1 retrotransposition; Figure 4a Graph 3, 50μM, 0μM average 17.91",3.467
same,"Luciferase (retrotransposition), replicates","L1 retrotransposition; Figure 4a Graph 3, 50μM, Replicates 1-4, 0μM average 17.91",3.679 and 3.508 and 3.347 and 3.332
same,Effect on L1 retrotransposition,L1 retrotransposition; HeLa cells,some activity in the retrotransposition assay
same,"Inhibition of DNA damage, full-length L1 experiments",[5],best inhibition
same,"Nuclei comet tail length, average (WT = 1)",[6],0.8544
same,"MMP3 RT-qPCR, average (EP = 1)","[7]; 50 μM, senescent cells, SEN control 5.499, 3 replicates",3.608
same,"IL1β RT-qPCR, average (EP = 1)","[7]; 50 μM, senescent cells, SEN control 8.256, 3 replicates",8.197
same,"CCL2 RT-qPCR, average (EP = 1)","[7]; 50 μM, senescent cells, SEN control 8.589, 3 replicates",4.591
same,"IFNα RT-qPCR, average (EP = 1)","[7]; 50 μM, senescent cells, SEN control 18.65, 3 replicates",8.607
same,"IL6 RT-qPCR, average (EP = 1)","[7]; 50 μM, senescent cells, SEN control 22.45, 3 replicates",8.334
same,Inhibition of inflammation in senescent cells,[7]; treated 1 month,showed efficacy
same,"Expression of IFN-I gene set and aging gene set (RNA-seq, GSEA)",[8],decreased expression
same,"PrestoBlue (viability), average",HeLa Tet-On cells,5.992
